Experimental data published in patent publication US10556907B2 (AbbVie Inc., priority 2015, dated 2020).

What was measured:
Assay in all cases: Method 1: intracellular Ca2+ release (FLIPR, Calcium 5) in recombinant CHO-K1 cells
Format in all cases: cell-based
human S1PR1 receptor = biological target: T1, human S1PR1 receptor (Homo sapiens, UniProt P21453); settings: (1): determined with method 1; read-out: S1P1 EC50
T1 construct: host or cells: CHO-K1
Method: (§1) Agonistic activity was measured using two different methods, described below.
(§2) Method 1. Intracellular Ca^2+ Release
(§3) Agonist potency and intrinsic activity was assessed by measurement of intracellular Ca^2+ release. Recombinant CHO-K1 cells (Euroscreen, Brussels, Belgium) expressing human S1PR5, S1PR1, S1PR3 or S1PR4 receptors, aequorin, and GTP binding protein Gq/i5 were cultured using a medium containing nutrient mixture F-12 Ham (Sigma-Aldrich) with 10% FBS, and 100 μg/mL gentamicin and equilibrated at 5% CO2.
(§4) 15.000 cells in 20 μL medium were seeded into Biocoat poly-D-Lysine coated 384 well plates (Becton Dickinson #35-6663) and grown to 95% confluency after 24 h.
(§5) Culture medium was replaced by an assay buffer consisting of HBBS with Ca^2+ and Mg^2+ (Invitrogen #14025-050), 20 mmol/L Hepes (Sigma-Aldrich #H-3375), 2.5 mmol/L probenecid (Sigma-Aldrich #P-8761, and 0.1% BSA (Sigma-Aldrich #A-7030) pH 7.4. The Calcium 5 no-wash FLIPR assay kit (Molecular Devices #5000625) was performed as described in the kit instructions. Cells were incubated with Calcium 5 dye for 1 h at 37° C., 5% CO2 in the dark. After 45 min adaptation to RT assessment of agonist stimulation of intracellular Ca^2+ release was performed by addition of test compounds at concentrations obtained by serial dilution. Phospho-fingolimod was used as positive control. Antagonists were pre-incubated for 10 min with cells before addition of the agonist (phospho-fingolimod at EC80). Measurements were performed using a fluorometric imaging plate reader FLIPR® tetra (Molecular Devices). Agonist at the human S1P receptors were characterized by deducing EC50 (potency) values from a nonlinear fit to the measured fluorescence raw data after normalization to the reference agonist (phospho-fingolimod) curve.

human S1PR3 receptor = biological target: T2, human S1PR3 receptor (Homo sapiens, UniProt Q99500); settings: (1): determined with method 1; read-out: S1P3 EC50
T2 construct: host or cells: CHO-K1
Method: as §1, §2, §3, §4, §5

human S1PR5 receptor = biological target: T3, human S1PR5 receptor (Homo sapiens, UniProt Q9H228); settings: agonist potency, determined with method 1 (symbols A-D); read-out: S1P5 EC50 range
T3 construct: host or cells: CHO-K1
Method: as §1, §2, §3, §4, §5

T2 sequence (Q99500 whole entry): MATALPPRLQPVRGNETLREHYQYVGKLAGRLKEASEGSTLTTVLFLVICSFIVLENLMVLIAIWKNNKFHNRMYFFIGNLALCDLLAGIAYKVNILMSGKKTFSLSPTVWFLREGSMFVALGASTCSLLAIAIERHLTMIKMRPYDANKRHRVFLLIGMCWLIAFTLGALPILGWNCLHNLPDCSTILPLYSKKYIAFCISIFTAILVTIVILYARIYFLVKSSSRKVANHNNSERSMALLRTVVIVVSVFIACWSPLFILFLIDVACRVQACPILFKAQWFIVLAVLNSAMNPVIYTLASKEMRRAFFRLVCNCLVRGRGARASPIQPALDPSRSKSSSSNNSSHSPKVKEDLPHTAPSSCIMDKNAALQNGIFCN
T1 sequence (P21453 whole entry): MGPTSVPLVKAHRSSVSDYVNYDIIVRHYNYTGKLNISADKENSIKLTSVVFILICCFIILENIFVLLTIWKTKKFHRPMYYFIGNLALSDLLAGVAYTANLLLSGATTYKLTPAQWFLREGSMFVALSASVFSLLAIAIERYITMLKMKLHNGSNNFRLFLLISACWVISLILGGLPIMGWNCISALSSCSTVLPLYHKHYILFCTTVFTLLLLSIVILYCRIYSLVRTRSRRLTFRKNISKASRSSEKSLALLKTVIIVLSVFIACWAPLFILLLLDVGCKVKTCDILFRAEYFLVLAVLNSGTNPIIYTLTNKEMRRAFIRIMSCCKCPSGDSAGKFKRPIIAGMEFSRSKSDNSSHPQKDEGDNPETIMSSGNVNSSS
T3 sequence (Q9H228 whole entry): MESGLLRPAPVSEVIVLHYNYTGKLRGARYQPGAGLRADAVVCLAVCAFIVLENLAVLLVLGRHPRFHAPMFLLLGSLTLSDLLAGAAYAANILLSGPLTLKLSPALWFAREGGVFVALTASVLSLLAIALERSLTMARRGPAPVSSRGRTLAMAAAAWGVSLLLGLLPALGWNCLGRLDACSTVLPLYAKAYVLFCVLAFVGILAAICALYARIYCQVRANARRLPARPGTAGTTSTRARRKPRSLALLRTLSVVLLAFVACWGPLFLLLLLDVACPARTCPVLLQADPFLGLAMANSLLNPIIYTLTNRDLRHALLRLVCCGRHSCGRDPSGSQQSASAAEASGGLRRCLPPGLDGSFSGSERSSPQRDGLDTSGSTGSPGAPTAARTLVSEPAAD

SMILES | EC50 (human S1PR1 receptor) | EC50 (human S1PR3 receptor) | EC50 (human S1PR5 receptor)
CC(C)Oc1ccc(-c2ncc3c(n2)CCN(CCC(=O)O)C3)cc1Cl [Compound 79, 3-(2-(3-chloro-4-isopropoxyphenyl)-7,8-dihydropyrido[4,3-d]pyrimidin-6(5H)-yl)propanoic acid] | > 1000 nM | > 1000 nM | 1000 to 10000 nM
O=C(O)CCN1CCc2ncc(-c3ccc(OCc4cccc(Cl)c4)cc3)nc2C1 [Compound 222, 3-(3-(4-((3-chlorobenzyl)oxy)phenyl)-7,8-dihydropyrido[3,4-b]pyrazin-6(5H)-yl)propanoic acid] | > 1000 nM | > 1000 nM | 1000 to 10000 nM
CC(CC(=O)O)N1CCc2nc(-c3ccc(OCc4ccccc4)cc3)ncc2C1 (stereo not drawn) [Compound 36, 3-(2-(4-(benzyloxy)phenyl)-7,8-dihydropyrido[4,3-d]pyrimidin-6(5H)-yl)butanoic acid] | > 1000 nM | > 1000 nM | 100 to 1000 nM
O=C(O)CCN1CCc2nc(-c3ccc(OCc4ccc(C(F)(F)F)cc4)cc3)ncc2C1 [Compound 81, 3-(2-(4-((4-(trifluoromethyl)benzyl)oxy)phenyl)-7,8-dihydropyrido[4,3-d]pyrimidin-6(5H)-yl)propanoic acid] | > 1000 nM | > 1000 nM | < 10 nM
CC(CN1CCc2nc(-c3ccc(OCc4ccccc4F)c(Cl)c3)ccc2C1)C(=O)O (stereo not drawn) [Compound 105, 3-(2-(4-((2-fluorobenzyl)oxy)-3-chlorophenyl)-7,8-dihydro-1,6-naphthyridin-6(5H)-yl)-2-methylpropanoic acid] | > 1000 nM | > 1000 nM | 100 to 1000 nM
CC(CC(=O)O)N1CCc2nc(-c3ccc(OCc4cccc(F)c4)cc3)ncc2C1 (stereo not drawn) [Compound 41, 3-(2-(4-((3-fluorobenzyl)oxy)phenyl)-7,8-dihydropyrido[4,3-d]pyrimidin-6(5H)-yl)butanoic acid] | > 1000 nM | > 1000 nM | < 10 nM
O=C(O)CCN1CCc2nc(-c3ccc(OCc4ccc(C(F)F)cc4)cc3)ncc2C1 [Compound 77, 3-(2-(4-((4-difluoromethylbenzyl)oxy)phenyl)-7,8-dihydropyrido[4,3-d]pyrimidin-6(5H)-yl)propanoic acid] | > 1000 nM | > 1000 nM | < 10 nM
Cc1cc(-c2cc3c(cn2)CN(CCC(=O)O)CC3)ccc1OCc1ccccc1 [Compound 171, 3-(6-(4-(benzyloxy)-3-methylphenyl)-3,4-dihydro-2,7-naphthyridin-2(1H)-yl)propanoic acid] | > 1000 nM | > 1000 nM | 10 to 100 nM
O=C(O)CCN1CCc2nc(-c3ccc(OCc4ccc(OC(F)(F)F)cc4)cc3)ccc2C1 [Compound 153, 3-(2-(4-((4-trifluoromethoxybenzyl)oxy)phenyl)-7,8-dihydro-1,6-naphthyridin-6(5H)-yl)propanoic acid] | > 1000 nM | > 1000 nM | 100 to 1000 nM
O=C(O)CCN1CCc2nc(-c3ccc(OCc4cccc(C(F)F)c4)cc3)ncc2C1 [Compound 76, 3-(2-(4-((3-difluoromethylbenzyl)oxy)phenyl)-7,8-dihydropyrido[4,3-d]pyrimidin-6(5H)-yl)propanoic acid] | > 1000 nM | > 1000 nM | < 10 nM
CC(CC(=O)O)CN1CCc2nc(-c3ccc(OCc4ccc(Cl)cc4)cc3)ncc2C1 (single isomer, unassigned; (-)) [Compound 213, (−)-4-(2-(4-((4-chlorobenzyl)oxy)phenyl)-7,8-dihydropyrido[4,3-d]pyrimidin-6(5H)-yl)-3-methylbutanoic acid] | > 1000 nM | > 1000 nM | 10 to 100 nM
CC(CN1CCc2nc(-c3ccc(OCc4ccc(F)cc4)c(Cl)c3)ccc2C1)C(=O)O (stereo not drawn) [Compound 104, 3-(2-(4-((4-fluorobenzyl)oxy)-3-chlorophenyl)-7,8-dihydro-1,6-naphthyridin-6(5H)-yl)-2-methylpropanoic acid] | > 1000 nM | > 1000 nM | 10 to 100 nM
O=C(O)CCN1CCc2nc(-c3ccc(OCc4ccccc4)cc3)ncc2C1 [Compound 67, 3-(2-(4-(benzyloxy)phenyl)-7,8-dihydropyrido[4,3-d]pyrimidin-6(5H)-yl)propanoic acid] | > 1000 nM | > 1000 nM | 10 to 100 nM
O=C(O)CCN1CCc2nc(-c3ccc(OCc4ccc(Cl)c(Cl)c4)cc3)ncc2C1 [Compound 73, 3-(2-(4-((3,4-dichlorobenzyl)oxy)phenyl)-7,8-dihydropyrido[4,3-d]pyrimidin-6(5H)-yl)propanoic acid] | > 1000 nM | > 1000 nM | < 10 nM
O=C(O)CCCN1CCc2nc(C#Cc3ccccc3)ncc2C1 [Compound 48, 4-(2-(phenylethynyl)-7,8-dihydropyrido[4,3-d]pyrimidin-6(5H)-yl)butanoic acid] | > 1000 nM | > 1000 nM | 1000 to 10000 nM

Next, values leading:

EC50 (human S1PR1 receptor) | EC50 (human S1PR3 receptor) | EC50 (human S1PR5 receptor) | SMILES
> 1000 nM | > 1000 nM | < 10 nM | O=C(O)CCN1CCc2nc(-c3ccc(OCc4ccc(F)c(F)c4)cc3)ncc2C1 [Compound 71, 3-(2-(4-((3,4-difluorobenzyl)oxy)phenyl)-7,8-dihydropyrido[4,3-d]pyrimidin-6(5H)-yl)propanoic acid]
< 1000 nM | > 1000 nM | < 10 nM | O=C(O)CCN1CCc2nc(-c3ccc(OCc4ccc(F)cc4)cc3)c(F)cc2C1 [Compound 190, 3-(2-(4-((4-fluorobenzyl)oxy)phenyl)-3-fluoro-7,8-dihydro-1,6-naphthyridin-6(5H)-yl)propanoic acid]
> 1000 nM | > 1000 nM | 1000 to 10000 nM | CC(C)Oc1ccc(-c2ncc3c(n2)CCN(CCCC(=O)O)C3)cc1Cl [Compound 47, 4-(2-(3-chloro-4-isopropoxyphenyl)-7,8-dihydropyrido[4,3-d]pyrimidin-6(5H)-yl)butanoic acid]
> 1000 nM | > 1000 nM | 100 to 1000 nM | Cc1cc(-c2ccc3c(n2)CCN(C2CC(C(=O)O)C2)C3)ccc1OCc1ccccc1 (stereo not drawn) [Compound 117, 3-(2-(4-(benzyloxy)-3-methylphenyl)-7,8-dihydro-1,6-naphthyridin-6(5H)-yl)cyclobutanecarboxylic acid]
< 1000 nM | > 1000 nM | < 10 nM | Cc1cccc(C)c1COc1ccc(-c2ncc3c(n2)CCN(CC(C)C(=O)O)C3)cc1 (stereo not drawn) [Compound 15, 3-(2-(4-((2,6-dimethylbenzyl)oxy)phenyl)-7,8-dihydropyrido[4,3-d]pyrimidin-6(5H)-yl)-2-methylpropanoic acid]
> 1000 nM | > 1000 nM | < 10 nM | O=C(O)CCN1CCc2nc(-c3ccc(OCc4cccc(C(F)(F)F)c4)cc3)ncc2C1 [Compound 86, 3-(2-(4-((3-(trifluoromethyl)benzyl)oxy)phenyl)-7,8-dihydropyrido[4,3-d]pyrimidin-6(5H)-yl)propanoic acid]
> 1000 nM | > 1000 nM | 10 to 100 nM | CC(CC(=O)O)N1CCc2nc(-c3ccc(OCc4ccc(Cl)cc4)cc3)ncc2C1 (stereo not drawn) [Compound 44, 3-(2-(4-((4-chlorobenzyl)oxy)phenyl)-7,8-dihydropyrido[4,3-d]pyrimidin-6(5H)-yl)butanoic acid]
< 1000 nM | > 1000 nM | < 10 nM | O=C(O)CCN1CCc2nc(-c3ccc(OCc4ccc(F)c(F)c4)cc3)c(F)cc2C1 [Compound 198, 3-(2-(4-((3,4-difluorobenzyl)oxy)phenyl)-3-fluoro-7,8-dihydro-1,6-naphthyridin-6(5H)-yl)propanoic acid]
< 1000 nM | > 1000 nM | < 10 nM | O=C(O)CCN1CCc2nc(-c3ccc(OCc4cccc(OC(F)(F)F)c4)cc3)ccc2C1 [Compound 151, 3-(2-(4-((3-trifluoromethoxybenzyl)oxy)phenyl)-7,8-dihydro-1,6-naphthyridin-6(5H)-yl)propanoic acid]
< 1000 nM | > 1000 nM | < 10 nM | O=C(O)CCN1CCc2nc(-c3ccc(OCc4cccc(OC(F)F)c4)cc3)ccc2C1 [Compound 164, 3-(2-(4-((3-difluoromethoxybenzyl)oxy)phenyl)-7,8-dihydro-1,6-naphthyridin-6(5H)-yl)propanoic acid]
< 1000 nM | > 1000 nM | < 10 nM | Cc1cc(OC(F)(F)F)ccc1COc1ccc(-c2ncc3c(n2)CCN(CCC(=O)O)C3)cc1 [Compound 93, 3-(2-(4-((2-methyl-4-(trifluoromethoxy)benzyl)oxy)phenyl)-7,8-dihydropyrido[4,3-d]pyrimidin-6(5H)-yl)propanoic acid]
